Assays:
[1] = stability of the tablet / of efletirizine with pseudoephedrine; type: physicochemical; details: efletirizine and pseudoephedrine formulated together in the same segment
histamine H1-receptor = histamine H1-receptor (Homo sapiens, UniProt P35367); details: in vitro; cited from earlier work
Chain of histamine H1-receptor (P35367 whole entry, species assumed): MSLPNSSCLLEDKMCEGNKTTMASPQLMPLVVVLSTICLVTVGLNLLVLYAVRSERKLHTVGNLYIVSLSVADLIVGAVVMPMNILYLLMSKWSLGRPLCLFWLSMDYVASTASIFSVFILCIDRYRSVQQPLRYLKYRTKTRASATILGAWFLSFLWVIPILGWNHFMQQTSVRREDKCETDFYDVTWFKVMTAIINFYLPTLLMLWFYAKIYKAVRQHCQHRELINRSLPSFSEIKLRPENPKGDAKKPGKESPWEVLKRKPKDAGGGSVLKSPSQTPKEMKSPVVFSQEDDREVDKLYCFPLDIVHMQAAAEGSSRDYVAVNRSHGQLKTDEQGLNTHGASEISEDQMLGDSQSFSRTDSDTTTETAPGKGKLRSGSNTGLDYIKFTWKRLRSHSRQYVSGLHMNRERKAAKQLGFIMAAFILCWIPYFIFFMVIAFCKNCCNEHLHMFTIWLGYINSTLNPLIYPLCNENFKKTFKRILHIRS

For `O=C(O)COCCN1CCN(C(c2ccc(F)cc2)c2ccc(F)cc2)CC1` [Efletirizine, 2-{2-[4-[bis(4-fluorophenyl)methyl)-1-piperazinyl]ethoxy}acetic acid], the degradation of efletirizine [1] is given as “a degradation of efletirizine appeared” and the “affinity and selectivity for H1-receptors” value (histamine H1-receptor) is given as “high affinity and selectivity”.

— patent publication US20060122194A1, “Tablet comprising efletirizine and pseudoephedrine” (UCB Farchim S.A., priority 2002, published 2006)
